The values below come from patent US20230027495A1, “METHODS OF TREATING CANCER WITH A COMBINATION OF AN ANTI-PD-1 ANTIBODY AND AN ANTI-TISSUE FACTOR ANTIBODY-DRUG CONJUGATE” (Genmab A/S, priority 2019, published 2023).

“Also recorded” adds a separate entry of the source.

In data set [1] the test system is human peripheral blood mononuclear cells (PBMCs). Kind of data set: T cell activation in CSFE labeled human PBMCs fed drug-killed MDA-MB-231 cells, with or without pembrolizumab. In kind it is cell-based. The following applies: PBMCs fed drug-exposed MDA-MB-231 cells, 48 hours. The source says: Induction of the innate immune response following exposure to cancer cells undergoing ICD sets up secondary T cell activation, which can be enhanced by concomitant pembrolizumab treatment.

The next data set concerns MDA-MB-231 xenograft. Kind of data set: MDA-MB-231 xenograft model in humanized NSG mice. In kind it is in vivo. As for the experimental part: The in vivo anti-tumor efficacy of tisotumab vedotin in combination with an anti-PD-1 monoclonal antibody was evaluated in NOD.Cg-PrkdC^scid Il2rg^tm1Wj1/SzJ (NSG) immunodeficient mice (The Jackson Laboratory, Stock No. 005557), humanized by engraftment with human CD34^+ hematopoietic stem cells (Jackson Laboratories, Sacramento). Mice were subcutaneously inoculated with 5×10^6 MDA-MB-231 cells (breast adenocarcinoma; American Tissue Culture Collection (ATCC), cat. no. HTB-26), in 100 μL phosphate-buffered saline (PBS). Before inoculation, cells were cultured in DMEM with high glucose and HEPES without L-glutamine (Lonza, cat. no. BE12-709F), 10% (v/v) donor bovine serum with iron New Zealand Origin (Thermo Fisher Scientific, DBSI, cat. no. 10371-029), 2 mM L-glutamine (Lonza, cat. no. BE17-605E), 1 mM Na-pyruvate (Lonza, cat. no. BE13-115E), MEM non-essential amino acids (Life Technologies, cat. no. 11140) and 1% (v/v) penicillin/streptomycin (Lonza, cat. no. DE17-603E), in CellSTACK culture chambers (Corning, cat. no. 3313).
Tumor size was determined by caliper measurement at least two times a week and tumor volume was calculated as 0.52×length×width^2. When tumors reached the size of 100 mm^3 mice were randomized in 7 groups (8 mice per treatment group) based on mouse cohort and tumor size (Table 1). Mice were treated with tisotumab vedotin alone (1 mg/kg or 0.5 mg/kg), intravenously, weekly for a maximum of five treatments, or in combination with an anti-PD-1 antibody (i.e., pembrolizumab, KEYTRUDA®, 50 mg concentrate, Merck & Co., Inc., Kenilworth, N.J. USA) or with anti-PD-1 antibody alone. The first dose of the anti-PD-1 antibody (i.e., pembrolizumab) was 10 mg/kg, followed by 5 mg/kg every five days for a maximum of six treatments. Mice in control groups were administered 1 mg/kg of IgG1 isotype control antibody or IgG1 isotype control antibody conjugated to MMAE intravenously, weekly for a maximum of five treatments (Table 1). The IgG1 isotype control antibody is the b12 antibody which is known to bind to HIV-1 gp120. […]
On the technique in general: A xenograft is tissue or cells of one species grown in another, often human tumour cells in immunodeficient mice.

In data set [2] the test system is murine tumor cells that stably express human TF. Description: Immunization of Balb/c mice with drug-killed human TF positive murine tumor cells, then tumor challenge (syngeneic model). In kind it is in vivo. Conditions: mice immunized with drug-killed human TF positive tumor cells. As for the experimental part: Mouse tumor cells are transfected with plasmid constructs encoding human tissue factor (TF) and sgRNA-guided Cas9 nuclease (sgRNA/Cas9) to generate a murine cell line that expresses the human TF. Fluorescence activated cell sorting (FACS) yields a clonal population of murine tumor cells that stably express human TF, these cells are then treated with 1 μg to 5 μg per ml of tisotumab vedotin or 100 nM of MMAE for 4 days. In order to prepare dying cells for immunization, treated murine tumor cells are overlaid atop Histopaque, and centrifuged at 2000 g for 30 minutes. Dead and dying cells are pelleted underneath the Histopaque layer, and viability assessed by trypan blue exclusion. A sample with approximately <20% live cells as measured by trypan blue exclusion is obtained. Flash-frozen tumor cells are prepared by submerging the cells in liquid nitrogen for 10 seconds, followed by immersion in 37° C. water until completely thawed. The liquid nitrogen freeze-thaw process is repeated 5 times. Dead and dying human TF positive tumor cells are resuspended in phosphate buffered saline (PBS) and 2×10^6 cells are injected into the peritoneum of immune-competent Balb/c mice. Seven days later, mice receive a second immunization with dead and dying cells prepared in the same manner.
Fourteen days after initial immunization with the dead and dying human TF positive tumor cells, mice are subcutaneously implanted with 5×10^6 wild-type tumor cells and monitored for tumor growth. […] As these effects occur in the absence of any administered therapeutic agent, the administration of cells killed by tisotumab vedotin or MMAE is sufficient to generate long-lasting protective immune memory against subsequent tumor cell challenge. Protective immune memory is amplified by treating these mice with tisotumab vedotin in combination with an antibody that binds to murine PD-1.

The test system of data set [3] is Tissue Factor positive cell lines. Description: Cell death and ATP/HMGB1 release from Tissue Factor positive cell lines. In kind it is cell-based. The following applies: for activity across multiple Tissue Factor positive cell lines: release of ICD related molecules. The text has this:
Auristatin ADC payloads disrupt the microtubule networks resulting in altered ER localization and function, which ultimately results in ER stress.

Data set [4] relates to HPAFII (pancreatic carcinoma) and MDA-MB-231 (breast carcinoma) cells. Kind of data set: Western blot of ER stress pathways in HPAFII and MDA-MB-231 cells. In kind it is cell-based. The procedure: Induction of cell death and release of ICD danger signals occurs concomitant with initiation of an ER stress response. Two Tissue Factor positive cell lines, HPAFII (pancreatic carcinoma) and MDA-MB-231 (breast cell carcinoma) were exposed to tisotumab vedotin ADC, an Isotype-MMAE ADC (H00-MMAE, IgG1 MMAE), or free MMAE for 18 hours and induction of ER stress monitored by western blot analysis. Phosphorylation of inositol-requiring transmembrane kinase/endonuclease 1 (IRE1) was detected after treatment with tisotumab vedotin ADC or MMAE free drug (FIG. 6). […] The ability for auristatins to prime the immune system to recognize tumor antigens opens the door for a myriad of combinatorial therapeutic options.
In general terms: Immunoblotting shows a protein as a band on a membrane.

Data set [5] has as its system human peripheral blood mononuclear cells (PBMCs). Description: Monocyte/macrophage activation in human PBMCs fed drug-killed MDA-MB-231 cells. Format: cell-based. The text has this: FIGS. 7A and 7B is a series of graphs in which Tissue Factor positive MDA-MB-231 cells killed with various agents were fed to human peripheral blood mononuclear cells (PBMCs) and immune activation assessed by increased expression of activations markers on innate CD14+ monocyte/macrophages and induction of chemokine and cytokine production.
Immunogenic cell death, as mediated by MMAE, is regulated cell death that activates adaptive immune responses against antigens from dead and dying tumor cells, and allows for the generation of robust innate immune cell activation and subsequent cytotoxic T cell responses targeted towards specific tumor cell antigens. […] Furthermore, these monocyte/macrophages conditioned by ICD-killed cells promote activation of T cells, as evidenced by production of signature inflammatory cytokines associated with cytotoxic T cell responses.

Data set [6] deals with relapsed, recurrent, and/or metastatic cervical cancer. Conditions: cited from earlier work.
[7] abbreviates: HPAFII and MDA-MB-231 cells, 18 hours.
[8] abbreviates: subjects who received tisotumab vedotin.

With tisotumab, in data set [1], the “T cell proliferation (CSFE dilution)” value is reported as “did not elicit these responses”, the “production of IFNγ” value is reported as “did not elicit these responses” and the “production of IL12p70” value was “did not elicit these responses”.

Turning to “tisotumab vedotin: antibody-drug conjugate comprising an antibody that binds to tissue factor (TF), a protease-cleavable linker, and the microtubule disrupting agent MMAE”, the “tumor burden as assessed by tumor volume” value in the data set with MDA-MB-231 xenograft (tisotumab vedotin 0.5 mg/kg IV weekly) is “efficiently reduced tumor burden”. Further, in the data set with MDA-MB-231 xenograft (tisotumab vedotin 1.0 mg/kg IV weekly), the “tumor burden as assessed by tumor volume” value is recorded as “efficiently reduced tumor burden”. In data set [2], the “survival after challenge with wild-type tumor cells” value is listed as “increased survival” and the “tumor growth after challenge with wild-type tumor cells” value was “delayed tumor growth”. Moreover, in data set [3] (Tissue Factor positive cells), the ATP secretion/release result was “drove robust A) ATP secretion; also recorded: release the ICD related molecules”, the HMGB1 release entry was “HMGB1 release; also recorded: release the ICD related molecules” and the cell death entry was “undergo cell death”. For the same substance, the “activity across multiple Tissue Factor positive cell lines” value in data set [3] was “occurs across multiple Tissue Factor positive cell lines”. In addition, the “activity across multiple Tissue Factor positive cell lines” value in data set [3] (listed as Tisotumab vedotin) is recorded as “active on multiple Tissue Factor positive cell lines”. Also, in data set [4] (setting [7]), the “activation of JNK (phosphorylation)” value was “increased phosphorylation”, the “activation of PERK pathway (ATF4 cleavage)” value is listed as “upregulation of ATF4 cleavage” and the “phosphorylation of IRE1” value was “detected”. Also, in data set [4] (HPAFII or MDA-MB-231 cells, 16 hours), the “activation of ER stress pathways (phosphorylation of IRE and JNK, cleavage of ATF4)” value is reported as “trigger multiple ER stress pathways”. Besides, in data set [5] (CD14+ monocyte/macrophages, flow cytometry, PBMCs fed killed MDA-MB-231 cells, compared to IgG1-MMAE ADC or tisotumab alone), the “monocyte/macrophage activation by CD86 expression” value is recorded as “drove monocyte/macrophage activations”. Besides, the “release of innate chemokines” value in data set [5] (PBMCs fed killed MDA-MB-231 cells, compared to IgG1-MMAE ADC or tisotumab alone) is reported as “induced release of innate chemokines including MIP10”. Also, in data set [5] (after uptake of killed Tissue Factor positive cells), the “chemotactic and inflammatory mediators from monocyte/macrophages” value is “elicit strong chemotactic and inflammatory mediators”. Besides, in data set [1], the “T cell proliferation (CSFE dilution)” value is on record as “drove T cell proliferation”, the “production of IFNγ” value was “increased; also recorded: production of T cell specific cytokines” and the “production of IL12p70” value is on record as “increased; also recorded: production of T cell specific cytokines”. In data set [6] (2.0 mg/kg tisotumab vedotin), the efficacy entry is on record as “robust efficacy” and the safety profile entry is “manageable safety profile”. The “grade of epistaxis cases” value in data set [6] (nearly all of the cases) was “grade 1”. In data set [6] (setting [8]), the “grade of the majority of reported peripheral neuropathy cases” value is reported as “grade 1-2”, the “peripheral neuropathy as cause of permanent discontinuation” value is “leading cause of permanently discontinuation” and the “subjects with peripheral neuropathy” value is listed as “approximately 35%”. Also, the “AEs of grade 1-2 conjunctivitis” value in data set [6] (tisotumab vedotin alone) is “frequently reported”. Also, in data set [6] (tisotumab vedotin), the “clinically relevant perturbations in aPTT or PT” value was “have not been observed” and the “epistaxis (bleeding AE) frequency” value is “most common reported AE”.
